Measurements published in patent US9012611B2, “Use of 3,8,12,14, 17,20-oxo-substituted pregnene glycosides in the preparation of healthcare products, food additives and pharmaceuticals for the inhibition of appetite” (Institute of Materia Medica, Chinese Academy of Sciences, priority 2010, dated 2015).

Columns and labels:
[1] = tested on: female Wistar rat; test: Animal test in vivo: average food consumption (appetite inhibition); conditions: for Average food consumptions: Table 4, positive control 15 mg/kg, wilfosides 50 mg/kg; for average food consumptions compared with the blank control group (in words): during the administration of the drugs, crude extract 300 mg/kg, pure glycosides 50 mg/kg
Procedure: (§1) 6-7 weeks-old female Wistar rat (purchased from Shanghai Laboratory Animal Center of Chinese Academy of Sciences)(weight: 110-150 g) was raised alone in suspended metal cage. After the experimental rat was obtained, it was checked to make sure whether they were abnormal or had obvious disease signs. The rat can freely obtain the drinking-water and feed for rodent (RM1(E)AQC). The feeding cage was controlled to receive 12 h illumination (from 07:00 to 19:00) and to be in a dark environment for 12 h, and the room temperature and relative humidity were controlled to be 21±3° C. and 55±15% respectively and not to deviate the upper and lower limit. The rats were randomly divided into groups depending on the body weight according to random number table to make the average weight in each group are approximately equal. Before the test, the rats were pre-trained suitably for one week (from −7th day to −1st day) during which the consumptions of feed and drinking water were recorded.
(§2) Each group of drug to be tested, positive control group, and blank control group consisted of 5 rats, respectively. The tested drug and positive control drug were mixed with wheaten starch before the administration and formulated to suspension with required doses according to 10 mL/kg of administration volume. The positive control drug was sibutramine hydrochloride and the administration dosage was 15 mg/kg body weight. In the blank control group, only equal amount of starch was used to formulate suspension for administration by […] in a same volume. The administration time is the 1st day, 2nd day and 3rd day. The body weight of the rat, the consumption of the feed (the weight of the feeding hopper) and consumption of the drinking water (bottle weight) were recorded from the −7th day to the 7th day.

[2] = Animal test in vivo: average body weight; set-up: species or system rat; conditions: for Average body weight: Table 6, positive control 15 mg/kg, wilfosides 50 mg/kg; for body weight compared with the blank control group (in words): during the administration of the drugs, crude extract 300 mg/kg, pure glycosides 50 mg/kg
Procedure: as §1, §2

[3] = 4th day (after administration on days 1-3)
[4] = 5th day (after administration on days 1-3)
[5] = 6th day (after administration on days 1-3)
[6] = 7th day (after administration on days 1-3)
[7] = −1st day (before administration)
[8] = −2nd day (before administration)
[9] = −3rd day (before administration)
[10] = −4th day (before administration)
[11] = −5th day (before administration)
[12] = −6th day (before administration)
[13] = −7th day (before administration)

Structure (SMILES)	Average food consumptions ([1]; 1st day (administration day))	Average food consumptions ([1]; 2nd day (administration day))	Average food consumptions ([1]; 3rd day (administration day))	Average food consumptions [1, 3]	Average food consumptions [1, 4]	Average food consumptions [1, 5]	Average food consumptions [1, 6]	average food consumptions compared with the blank control group (in words) [1]	Average food consumptions [1, 7]	Average food consumptions [1, 8]	Average food consumptions [1, 9]	Average food consumptions [1, 10]	Average food consumptions [1, 11]	Average food consumptions [1, 12]	Average food consumptions [1, 13]	Average body weight ([2]; 1st day (administration day))	Average body weight ([2]; 2nd day (administration day))	Average body weight ([2]; 3rd day (administration day))	Average body weight [2, 3]	Average body weight [2, 4]	also measured
CO[C@H]1C[C@H](O[C@H]2[C@@H](OC)C[C@H](O[C@H]3CC[C@@]4(C)C(=CC[C@]5(O)[C@@H]4C[C@@H](OC(=O)/C=C/c4ccccc4)[C@@]4(C)[C@]5(O)CC[C@@]4(O)C(C)=O)C3)O[C@@H]2C)O[C@@H](C)[C@H]1O[C@H]1C[C@H](OC)[C@H](O[C@H]2C[C@@H](OC)[C@@H](O)[C@H](C)O2)[C@@H](C)O1 [Wilfoside K1N, wilfoside K1N]	2.8 g	6.4 g	2.8 g	8.4 g	9.2 g	13.6 g	14.8 g	greatly different from those in the blank group	13.2 g	13.6 g	13.2 g	14.4 g	14.8 g	10.8 g	7.6 g	136.4 g	134.4 g	130.4 g	134.2 g	136.8 g	Average body weight [2, 5]: 139.2 g; Average body weight [2, 6]: 144 g; body weight compared with the blank control group (in words) [2]: greatly different from those in the blank group; Average body weight [2, 7]: 148.8 g; Average body weight [2, 8]: 146.4 g; Average body weight [2, 9]: 143.6 g; Average body weight [2, 10]: 141.6 g; Average body weight [2, 11]: 140 g; Average body weight [2, 12]: 137.6 g; Average body weight [2, 13]: 134.8 g
CO[C@H]1C[C@H](O[C@H]2[C@@H](OC)C[C@H](O[C@H]3CC[C@@]4(C)C(=CC[C@]5(O)[C@@H]4C[C@@H](OC(=O)/C=C(\C)C(C)C)[C@@]4(C)[C@]5(O)CC[C@@]4(O)C(C)=O)C3)O[C@@H]2C)O[C@@H](C)[C@H]1O[C@H]1C[C@H](OC)[C@H](O[C@H]2C[C@@H](OC)[C@@H](O)[C@H](C)O2)[C@@H](C)O1 [Wilfoside C1N, wilfoside C1N]	11.6 g	8.8 g	3.6 g	11.6 g	15.6 g	13.6 g	15.6 g	greatly different from those in the blank group	13.6 g	14 g	13.2 g	13.2 g	14.8 g	10.8 g	8.4 g	152 g	146.8 g	141.6 g	149.2 g	154 g	Average body weight [2, 5]: 155.2 g; Average body weight [2, 6]: 157.2 g; body weight compared with the blank control group (in words) [2]: no great differences; Average body weight [2, 7]: 154 g; Average body weight [2, 8]: 151.4 g; Average body weight [2, 9]: 148.4 g; Average body weight [2, 10]: 146.8 g; Average body weight [2, 11]: 144.4 g; Average body weight [2, 12]: 142 g; Average body weight [2, 13]: 140.6 g
